Entries after “also recorded” stand apart in the source; their conditions may differ.
Target: protein kinase
Assay: HTS ATP-utilizing enzyme assay, off-chip mobility-shift format (Caliper HTS 250)
Assay type: biochemical, human
Settings: test compound 10 μM; for Kinase: kinase(s) for which the compound exhibits protein kinase inhibitory activity, active = greater than three-sigma from the mean activity of inactive compounds; for protein kinase against which the compound exhibits inhibitory activity (Table 3): active = activity greater than three-sigma from the mean of the predominately inactive population for that enzyme
In short: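 Kinase reactions ran 2.5 h at 20 to 22 °C with test compound at 10 μM, in a HEPES pH 7.5 master buffer containing Triton X-100 and BSA. Peptide substrate and phosphorylated product separated by mobility shift; inhibition normalized to DMSO (0%) and EDTA (100%) controls, with three-sigma thresholds for hits.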

Kinase	protein kinase against which the compound exhibits inhibitory activity (Table 3)	Compound
FYN		COc1ccc(NCc2nnc(SCC(=O)Nc3ccccc3C(=O)O)n2-c2ccc(OC)cc2)cc1
GSK3-B β; also recorded: GSK3-α		O=C(O)CSc1nnc(COc2ccc(Cl)cc2)[nH]1 [2-(5-((4-chlorophenoxy)methyl)-4H-1,2,4-triazol-3-ylthio)acetic acid]
AURORA-A		Cn1c(COc2ccc(Br)cc2)nnc1SCC(=O)O
	INSR and KIT and SYK	CCCCNC(=O)CSc1nnc(-c2ccccc2O)n1-c1ccccc1OC
AURORA-A		O=C(CSc1nnc(-c2ccc(O)cc2)n1Cc1ccco1)N1CCc2ccccc21
CHEK2		COc1ccccc1-n1c(CNc2c(C)cccc2C)nnc1SCC(=O)Nc1cccc(O)c1
	GSK3-β; also recorded: GSK3-α	Cc1ccc(-c2nnc(CSc3nnc(-c4ccc(S(=O)(=O)N5CCOCC5)cc4)n3C)o2)cc1
	CDK1	COc1ccccc1-c1nnc(SCCSc2nnc(-c3ccccc3OC)n2-c2ccc(C)cc2)n1-c1ccc(C)cc1 [1,2-bis(5-(2-methoxyphenyl)-4-p-tolyl-4H-1,2,4-triazol-3-ylthio)ethane]
	ROCK2	COc1ccccc1-n1c(SCC(=O)Nc2ccccc2)nnc1-c1cccc(Cl)c1
GSK3-β and GSK3-α and MSK1		Cn1c(SCC(=O)c2ccc3c(c2)OCCO3)nnc1-c1ccc(O)cc1
GSK3-α		CCC(=O)Nc1ccc(NC(=O)CSc2nnc(-c3ccc(O)cc3)n2CC)cc1C
FYN and PDGFRR-α and AURORA-A		COc1ccc(NCc2nnc(SCC#N)n2-c2ccc(C)cc2)cc1
GSK3-β; also recorded: GSK3-α		CCC(=O)Nc1ccc(C(=O)CSc2nnc(-c3ccc(O)cc3)n2Cc2ccco2)cc1OC
c-TAK1		Cc1nnc(SCC(=O)N2CCCc3ccccc32)n1-c1ccccc1
SYK		CCn1c(SCC(=O)N2CCN(c3ccc(OC)cc3)CC2)nnc1-c1ccc(O)cc1
AURORA-A; also recorded: GSK3-α		COc1ccc(OCc2nnc(S)n2-c2ccc(C)cc2)cc1 [5-((4-methoxyphenoxy)methyl)-4-p-tolyl-4H-1,2,4-triazole-3-thiol]
PDGFRR-α		CCn1c(CNc2ccc(C)c(Cl)c2)nnc1SCC(=O)O
GSK3-α		COc1ccccc1OCc1nnc(S)n1C [5-((2-methoxyphenoxy)methyl)-4-methyl-4H-1,2,4-triazole-3-thiol]
GSK3-α		CN(C)c1cccc(OCc2nnc(S)n2-c2ccccc2)c1 [5-((3-(dimethylamino)phenoxy)methyl)-4-phenyl-4H-1,2,4-triazole-3-thiol]

The remaining lines, values behind:

Compound	Kinase	protein kinase against which the compound exhibits inhibitory activity (Table 3)
CCn1c(S)nnc1-c1cc2ccccc2cc1O [3-(4-ethyl-5-mercapto-4H-1,2,4-triazol-3-yl)naphthalen-2-ol]	AURORA-A	
COc1ccc(-n2c(CNc3ccc(C)cc3)nnc2SCc2ccccc2)cc1		FLT-3; also recorded: PDGFRR-α
COCCCn1c(SCC(=O)N2CCCCC2)nnc1-c1ccc(C(C)(C)C)cc1	CDK5	
CN(C)CCCSc1nnc(-c2cccs2)[nH]1 [N,N-dimethyl-3-(5-(thiophen-2-yl)-4H-1,2,4-triazol-3-ylthio)propan-1-amine]		c-TAK1; also recorded: AURORA-A; also recorded: GSK3-α
O=C(CSc1nnc(-c2ccc(O)cc2)n1-c1ccccc1)NNC(=O)c1ccc(Cl)cc1		AURORA-A
Cc1nc(NC(=O)CSc2nnc(C3CC3)n2C)sc1C	GSK3-β; also recorded: GSK3-α	
N#Cc1ccccc1CSc1nnc(-c2ccccc2)[nH]1 [2-((5-phenyl-4H-1,2,4-triazol-3-ylthio)methyl)benzonitrile]		AURORA-A; also recorded: CHEK2; also recorded: GSK3-β
CCOC(=O)CSc1nnc(-c2ccc(O)cc2)n1Cc1ccco1	GSK3-β; also recorded: GSK3-α	
Cc1cccc(-c2nnc(SCc3cccc4ccccc34)[nH]2)c1 [3-(naphthalen-1-ylmethylthio)-5-m-tolyl-4H-1,2,4-triazole]		AURORA-A
Cc1ccc(-n2c(SCC(=O)O)nnc2-c2ccc(Cl)cc2)cc1 [2-(5-(4-chlorophenyl)-4-p-tolyl-4H-1,2,4-triazol-3-ylthio)acetic acid]	DAPK1 and AKT1	
Cc1nc(NC(=O)CSc2nnc(-c3cccnc3)n2Cc2ccco2)sc1C	GSK3-β; also recorded: AURORA-A	
Cc1nnc(SCC(=O)c2ccc3c(c2)OCCO3)[nH]1	GSK3-α; also recorded: GSK3-β; also recorded: DYRK2	
CCCCSc1nnc(-c2cccnc2)[nH]1		AURORA-A; also recorded: FLT-3; also recorded: c-TAK1
N#CCSc1nnc(-c2ccc(O)cc2)n1Cc1ccccc1 [2-(4-benzyl-5-(4-hydroxyphenyl)-4H-1,2,4-triazol-3-ylthio)acetonitrile]	GSK3-β; also recorded: GSK3-α	
O=C(CSc1nnc(-c2ccccc2O)n1Cc1ccccc1)NNC(=O)c1ccccc1O		FYN and HCK
O=C(CSc1nnc(CSc2nc3ccccc3s2)n1-c1ccccc1)NCCO	FYN	
O=C(CSc1nnc(-c2ccncc2)n1Cc1ccco1)NCc1ccco1	FYN	
CCn1c(SCC(=O)N2CCCC(C)C2)nnc1-c1ccc(S(=O)(=O)N2CCN(C)CC2)cc1 (stereo not shown)	FYN	
O=C(CSc1nnc(-c2ccccc2O)n1Cc1ccccc1)Nc1cccc(I)c1	SYK	
Cc1ccc(-n2c(CNc3ccc(F)cc3)nnc2SCC(=O)O)cc1	DAPK1; also recorded: AURORA-A	
Clc1ccc(CSc2nnc(-c3ccncc3)n2Cc2ccco2)c(Cl)c1		MSK2 and MSK1 and AKT3
O=c1c(Sc2nnc(-c3ccccc3)n2C2CCCCC2)c(Br)cnn1-c1ccccc1	GSK3-α	
Cn1c(Cc2ccccc2)nnc1SCC#N [2-(5-benzyl-4-methyl-4H-1,2,4-triazol-3-ylthio)acetonitrile]	AURORA-A	
Cc1nnc(SCc2ccccc2)[nH]1 [3-(benzylthio)-5-methyl-4H-1,2,4-triazole]		AURORA-A; also recorded: DYRK2
COC(=O)c1ccc(CSc2nnc(C)[nH]2)cc1 [methyl 4-((5-methyl-4H-1,2,4-triazol-3-ylthio)methyl)benzoate]		DYRK2; also recorded: AURORA-A
COc1ccc(NCc2nnc(SCCN3CCCCC3)n2-c2cccc(Cl)c2)cc1		FYN and PDGFRR-α and FLT-3
CCn1c(S)nnc1CNc1cccc(C(F)(F)F)c1 [4-ethyl-5-((3-(trifluoromethyl)phenylamino)methyl)-4H-1,2,4-triazole-3-thiol]	GSK3-α	
Clc1ccccc1CSc1nncn1-c1cccnc1 [3-(3-(2-chlorobenzylthio)-4H-1,2,4-triazol-4-yl)pyridine]		PDGFRR-α
Clc1ccc(Cn2c(Cc3ccccc3)nnc2SCc2ccccc2)cc1Cl [3-benzyl-5-(benzylthio)-4-(3,4-dichlorobenzyl)-4H-1,2,4-triazole]		AURORA-A
CCC(=O)Nc1cc(NC(=O)CSc2nnc(-c3ccc(O)cc3)n2CC)ccc1C	SGK1	

Reference: patent US20050288347A1, “Certain triazole-based compounds, compositions, and uses thereof” (priority 2004, published 2005)
